Earlier results, collected in patent publication US20220280453A1, “Pharmaceutical Formulation” (Klaria Pharma Holding AB, priority 2019, published 2022).
Where a name gives a salt, the structure may show the parent alone.

Settings: ionized form

| SMILES | pH at which most stable in solution |
| --- | --- |
| CNC1(c2ccccc2Cl)CCCCC1=O (racemic) [Ketamine, ketamine] | around 4 |

Settings: counterions of strong acids; Shannon effective ionic radii

| SMILES | Ionic radius [Å] |
| --- | --- |
| Br [Bromide (Br^−), Bromide] | 1.96 |
| Cl [Chloride (Cl^−), Chloride] | 1.81 |
| F [Fluoride (F^−), Fluoride] | 1.33 |
| I [Iodide (I^−), Iodide] | 2.20 |
| O=[N+]([O-])O [Nitrate (NO3^−), Nitrate] | 2.62 |
| O=S(=O)(O)O [Sulfate (SO4^2−), Sulfate] | 2.89 |
